Where two headings read alike, the source gives them in different places.
Tested on: human epithelial-derived cells (293T)
Assay: CCK-8 test of killing ability to cells (Embodiment 14)
Type: cell-based
Description: According to embodiments 1-3, water-soluble pigment solubilizing carrier dye was prepared, while cationic carrier ([…]) was used. First, human epithelial-derived cells (293T) were cultured, which was divided into three groups corresponding to a polyethyleneimine-co-isopropylacrylamide (water-soluble pigment solubilizing carrier) group, a polyethyleneimine-co-isopropylacrylamide (a water-soluble pigment solubilizing carrier) dye, and a commercially available cationic carrier group; the cells were cultured with commercially available cell culture medium ([…]) for 24 hours to obtain cells in the logarithmic growth phase; at this time, the same concentration gradient of polyethyleneimine-co-isopropylacrylamide (water-soluble pigment solubilizing carrier), polyethyleneimine-co-isopropylacrylamide (a water-soluble pigment solubilizing carrier)-pigment, and commercially available cationic carrier were added to the culture dishes of the three groups of cells; after 24 hours of culture, the CCK-8 test kit was used to examine the killing ability of the three groups of systems to the cells.

Row | Molecule | damage of cells (293T cells, concentration gradient, 24 hours of culture) | damage of cells
1 | CCCCCCCCCCCCOS(=O)(=O)[O-].[Na+] [commercially available cationic carrier, sodium lauryl sulfate] | cell death was rapid | –
2 | polyethyleneimine-co-isopropylacrylamide | – | hardly damaged

From patent US20190216712A1, “Hair dye composition, preparation method, and application method thereof” (SHANGHAI CLINICAL ENGINE TECHNOLOGY DEVELOPMENT CO., LTD., priority 2017, published 2019)
